≈ marks a conversion by molar mass, not a printed value. Calls of active or inactive are those of the source. The calls are words filed in the database; no cut-off is given here.
Columns and labels:
Staphylococcus aureus [1] = test: Antibacterial activity against Staphylococcus aureus ATCC 11632 at 0.78 to 50 ug/ml after 24 hr by broth microdilution method; assay type: functional, organism-based
Salmonella typhi [2] = test: Antibacterial activity against Salmonella enterica subsp. enterica serovar Typhi ATCC 23564 after 24 hr by broth microdilution method; assay type: functional; settings: ATCC 23564, 24 h
Escherichia coli [3] = test: Antibacterial activity against Escherichia coli ATCC 35218 at 0.78 to 50 ug/ml after 24 hr by broth microdilution method; assay type: functional, organism-based
Pseudomonas aeruginosa [4] = test: Antibacterial activity against Pseudomonas aeruginosa ATCC 15499 after 24 hr by broth microdilution method; assay type: functional; settings: ATCC 15499, 24 h
[5] = Cytotoxicity against Homo sapiens (human) L123 cells after 48 hr by MTT assay; assay type: cell-based; parameters: unit not given here
Aspergillus flavus [6] = test: Antifungal activity against Aspergillus flavus at 0.78 to 50 ug/ml after 72 hr by broth microdilution method; assay type: functional
Providencia rettgeri [7] = test: Antibacterial activity against Providencia rettgeri isolated from infected fish at 0.78 to 50 ug/ml after 24 hr by broth microdilution method; assay type: functional, organism-based
Bacillus cereus = test: Antibacterial activity against Bacillus cereus MTCC 7350 after 24 hr by broth microdilution method; assay type: functional; settings: MTCC 7350, 24 h
Aspergillus niger [8] = test: Antifungal activity against Aspergillus niger at 0.78 to 50 ug/ml after 72 hr by broth microdilution method; assay type: functional
Aspergillus fumigatus [9] = test: Antifungal activity against Aspergillus fumigatus after 72 hr by broth microdilution method; assay type: functional
Aspergillus fumigatus [10] = test: Antifungal activity against Aspergillus fumigatus at 0.78 to 50 ug/ml after 72 hr by broth microdilution method; assay type: functional
Aspergillus niger [11] = test: Antifungal activity against Aspergillus niger after 72 hr by broth microdilution method; assay type: functional
Staphylococcus aureus [12] = test: Antibacterial activity against Staphylococcus aureus ATCC 11632 after 24 hr by broth microdilution method; assay type: functional; settings: ATCC 11632, 24 h
Providencia rettgeri [13] = test: Antibacterial activity against Providencia rettgeri isolated from infected fish after 24 hr by broth microdilution method; assay type: functional
Escherichia coli [14] = test: Antibacterial activity against Escherichia coli ATCC 35218 after 24 hr by broth microdilution method; assay type: functional; settings: ATCC 35218, 24 h
Aspergillus flavus [15] = test: Antifungal activity against Aspergillus flavus after 72 hr by broth microdilution method; assay type: functional
Salmonella typhi [16] = test: Antibacterial activity against Salmonella enterica subsp. enterica serovar Typhi ATCC 23564 at 0.78 to 50 ug/ml after 24 hr by broth microdilution method; assay type: functional, organism-based
Pseudomonas aeruginosa [17] = test: Antibacterial activity against Pseudomonas aeruginosa ATCC 15499 at 0.78 to 50 ug/ml after 24 hr by broth microdilution method; assay type: functional, organism-based

Structure (SMILES) | Activity (Staphylococcus aureus [1]) | MIC (Salmonella typhi [2]) [µg/mL] | MIC (Pseudomonas aeruginosa [4]) [µg/mL] | IC50 [5] | Activity (Aspergillus flavus [6]) | MIC (Bacillus cereus) [µg/mL] | Activity (Aspergillus niger [8]) | MIC (Aspergillus fumigatus [9]) [µg/mL] | inhibition zone (IZ) (Aspergillus fumigatus [10]) [mm] | MIC (Aspergillus niger [11]) [µg/mL] | MIC (Staphylococcus aureus [12]) [µg/mL] | inhibition zone (IZ) (Aspergillus niger [8]) [mm] | MIC (Providencia rettgeri [13]) [µg/mL] | MIC (Escherichia coli [14]) [µg/mL] | MIC (Aspergillus flavus [15]) [µg/mL] | Activity (Aspergillus fumigatus [10]) | inhibition zone (IZ) (Aspergillus flavus [6]) [mm] | other results
CCOC(=O)C1=C(C)N=C2Sc3ccccc3N2C1c1ccccc1 (configuration not stated) | inactive | 25 (≈ 71.3 µM) | 25 (≈ 71.3 µM) | > 100 | inactive | 12.5 (≈ 35.7 µM) | inactive | 6.25 (≈ 17.8 µM) | 10 | – | – | – | – | – | – | – | – | Activity (Escherichia coli [3]): inactive; Activity (Providencia rettgeri [7]): inactive
CCOC(=O)C1=C(C)N=C2Sc3ccccc3N2C1c1ccc([N+](=O)[O-])cc1 (configuration not stated) | – | 6.25 (≈ 15.8 µM) | 12.5 (≈ 31.6 µM) | > 100 | inactive | 6.25 (≈ 15.8 µM) | – | 6.25 (≈ 15.8 µM) | 15 | 12.5 (≈ 31.6 µM) | 25 (≈ 63.2 µM) | 17 | 25 (≈ 63.2 µM) | 12.5 (≈ 31.6 µM) | – | – | – | –
CCOC(=O)C1=C(C)N=C2Sc3ccccc3N2C1c1c(Cl)cccc1Cl (configuration not stated) | – | 25 (≈ 59.6 µM) | 12.5 (≈ 29.8 µM) | > 100 | inactive | 6.25 (≈ 14.9 µM) | inactive | 6.25 (≈ 14.9 µM) | – | – | 12.5 (≈ 29.8 µM) | – | 12.5 (≈ 29.8 µM) | 6.25 (≈ 14.9 µM) | 12.5 (≈ 29.8 µM) | inactive | – | –
CCOC(=O)C1=C(C)N=C2Sc3ccccc3N2C1c1ccc(N(C)C)cc1 (configuration not stated) | inactive | 12.5 (≈ 31.8 µM) | 12.5 (≈ 31.8 µM) | > 100 | inactive | 6.25 (≈ 15.9 µM) | inactive | – | – | – | – | – | 12.5 (≈ 31.8 µM) | 12.5 (≈ 31.8 µM) | – | inactive | – | –
OC(Cn1cncn1)(Cn1cncn1)c1ccc(F)cc1F [FLUCONAZOLE] | – | – | – | – | – | – | – | 1.62 (≈ 5.29 µM) | 22 | 1.62 (≈ 5.29 µM) | – | 18 | – | – | 1.62 (≈ 5.29 µM) | – | 25 | –
CCOC(=O)C1=C(C)N=C2Sc3ccccc3N2C1c1ccc(O)cc1 (configuration not stated) | – | 25 (≈ 68.2 µM) | 12.5 (≈ 34.1 µM) | 50 | inactive | 6.25 (≈ 17.1 µM) | – | – | 12 | 6.25 (≈ 17.1 µM) | 12.5 (≈ 34.1 µM) | 15 | 12.5 (≈ 34.1 µM) | 6.25 (≈ 17.1 µM) | – | – | – | –
O=C(O)c1cn(C2CC2)c2cc(N3CCNCC3)c(F)cc2c1=O [CIPROFLOXACIN] | – | 3.25 (≈ 9.81 µM) | 1.62 (≈ 4.89 µM) | – | – | 1.62 (≈ 4.89 µM) | – | – | – | – | 3.25 (≈ 9.81 µM) | – | 1.62 (≈ 4.89 µM) | 1.62 (≈ 4.89 µM) | – | – | – | –
CCOC(=O)C1=C(C)N=C2Sc3ccccc3N2C1c1ccc(O)c(OC)c1 (configuration not stated) | – | – | – | 50 | inactive | 12.5 (≈ 31.5 µM) | – | – | – | 6.25 (≈ 15.8 µM) | 25 (≈ 63.1 µM) | 10 | 25 (≈ 63.1 µM) | 25 (≈ 63.1 µM) | – | inactive | – | Activity (Salmonella typhi [16]): inactive; Activity (Pseudomonas aeruginosa [17]): inactive
CCOC(=O)C1=C(C)N=C2Sc3ccccc3N2C1c1ccccc1O (configuration not stated) | inactive | – | 25 (≈ 68.2 µM) | > 100 | – | 6.25 (≈ 17.1 µM) | inactive | – | – | – | – | – | 12.5 (≈ 34.1 µM) | 12.5 (≈ 34.1 µM) | 12.5 (≈ 34.1 µM) | inactive | 11 | Activity (Salmonella typhi [16]): inactive
CCOC(=O)C1=C(C)N=C2Sc3ccccc3N2C1c1ccc(OC)cc1 (configuration not stated) | – | 12.5 (≈ 32.9 µM) | 6.25 (≈ 16.4 µM) | > 100 | – | 6.25 (≈ 16.4 µM) | – | 6.25 (≈ 16.4 µM) | 20 | 6.25 (≈ 16.4 µM) | 6.25 (≈ 16.4 µM) | 16 | 6.25 (≈ 16.4 µM) | 6.25 (≈ 16.4 µM) | – | – | 18 | –
